# Data from paper PMC6100082, “Pyridine-Ureas as Potential Anticancer Agents: Synthesis and In Vitro Biological Evaluation” (Molecules : A Journal of Synthetic Chemistry and Natural …, 2018).
# Key:
# Type in all cases: cell-based, human
# U251 = assay: NCI one-dose SRB assay (CNS Cancer); conditions: for Growth Percent: U251, 1.00E-5 Molar
# Procedure, shortened: (§1)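 Cells were treated with compound at 10^−5 M. After 48 h, growth was estimated with sulforhodamine B. Inhibition was given as GI%.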
# SNB-75 = assay: NCI one-dose SRB assay (CNS Cancer); conditions: for Growth Percent: SNB-75, 1.00E-5 Molar
# Procedure, shortened: as §1
# SF-539 = assay: NCI one-dose SRB assay (CNS Cancer); conditions: for Growth Percent: SF-539, 1.00E-5 Molar
# Procedure, shortened: as §1
# SF-295 = assay: NCI one-dose SRB assay (CNS Cancer); conditions: for Growth Percent: SF-295, 1.00E-5 Molar
# Procedure, shortened: as §1
# SF-268 = assay: NCI one-dose SRB assay (CNS Cancer); conditions: for Growth Percent: SF-268, 1.00E-5 Molar
# Procedure, shortened: as §1
# SNB-19 = assay: NCI one-dose SRB assay (CNS Cancer); conditions: for Growth Percent: SNB-19, 1.00E-5 Molar
# Procedure, shortened: as §1
# DU-145 = assay: NCI one-dose SRB assay (Prostate); conditions: for Growth Percent: DU-145, 1.00E-5 Molar
# Procedure, shortened: as §1
# PC-3 = assay: NCI one-dose SRB assay (Prostate); conditions: for Growth Percent: PC-3, 1.00E-5 Molar
# Procedure, shortened: as §1
# MOLT-4 = assay: NCI one-dose SRB assay (Leukemia); conditions: for Growth Percent: MOLT-4, 1.00E-5 Molar
# Procedure, shortened: as §1
# RPMI-8226 = assay: NCI one-dose SRB assay (Leukemia); conditions: for Growth Percent: RPMI-8226, 1.00E-5 Molar
# Procedure, shortened: as §1
# HL-60(TB) = assay: NCI one-dose SRB assay (Leukemia); conditions: for Growth Percent: 1.00E-5 Molar
# Procedure, shortened: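 SRB assay, 48 h drug exposure, compound fixed at 10^−5 M; output expressed as % growth inhibition.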
# K-562 = assay: NCI one-dose SRB assay (Leukemia); conditions: for Growth Percent: K-562, 1.00E-5 Molar
# Procedure, shortened: as §1
# SR = assay: NCI one-dose SRB assay (Leukemia); conditions: for Growth Percent: 1.00E-5 Molar
# Procedure, shortened: as §1
# CCRF-CEM = assay: NCI one-dose SRB assay (Leukemia); conditions: for Growth Percent: 1.00E-5 Molar
# Procedure, shortened: as §1
# SN12C = assay: NCI one-dose SRB assay (Renal Cancer); conditions: for Growth Percent: 1.00E-5 Molar
# Procedure, shortened: as §1
# A498 = assay: NCI one-dose SRB assay (Renal Cancer); conditions: for Growth Percent: A498, 1.00E-5 Molar
# Procedure, shortened: as §1
# 786-0 = assay: NCI one-dose SRB assay (Renal Cancer); conditions: for Growth Percent: 786-0, 1.00E-5 Molar
# Procedure, shortened: as §1
# TK-10 = assay: NCI one-dose SRB assay (Renal Cancer); conditions: for Growth Percent: TK-10, 1.00E-5 Molar
# Procedure, shortened: as §1
# RXF 393 = assay: NCI one-dose SRB assay (Renal Cancer); conditions: for Growth Percent: RXF 393, 1.00E-5 Molar
# Procedure, shortened: as §1
# UO-31 = assay: NCI one-dose SRB assay (Renal Cancer); conditions: for Growth Percent: UO-31, 1.00E-5 Molar
# Procedure, shortened: as §1
# NCI 58 cell line panel = assay: NCI one-dose SRB assay, whole panel / subpanel summary; conditions: for Mean Growth Percent: One Dose Mean Graph, 1.00E-5 Molar
# Procedure, shortened: as §1
# SW-620 = assay: NCI one-dose SRB assay (Colon Cancer); conditions: for Growth Percent: SW-620, 1.00E-5 Molar
# Procedure, shortened: as §1
# KM12 = assay: NCI one-dose SRB assay (Colon Cancer); conditions: for Growth Percent: KM12, 1.00E-5 Molar
# Procedure, shortened: as §1
# HCT-15 = assay: NCI one-dose SRB assay (Colon Cancer); conditions: for Growth Percent: HCT-15, 1.00E-5 Molar
# Procedure, shortened: as §1
# HCT-116 = assay: NCI one-dose SRB assay (Colon Cancer); conditions: for Growth Percent: HCT-116, 1.00E-5 Molar
# Procedure, shortened: as §1
# COLO 205 = assay: NCI one-dose SRB assay (Colon Cancer); conditions: for Growth Percent: COLO 205, 1.00E-5 Molar
# Procedure, shortened: as §1
# HCC-2998 = assay: NCI one-dose SRB assay (Colon Cancer); conditions: for Growth Percent: HCC-2998, 1.00E-5 Molar
# Procedure, shortened: as §1
# HT29 = assay: NCI one-dose SRB assay (Colon Cancer); conditions: for Growth Percent: HT29, 1.00E-5 Molar
# Procedure, shortened: as §1
# [1] = Homo sapiens, 10 μM, read-out: Percentage growth inhibition (GI%)
compound,measurement,setting,value
"1-(4-Chloro-4-(trifluoromethyl)cyclohexa-2,5-dien-1-yl)-3-(6-(3,4-dimethoxyphenyl)-2-methylpyridin-3-yl)urea [Compound 8l]",Percentage growth inhibition (GI%),"U251; U251, 10 μM",45%
same,Growth Percent,U251,55.26%
same,Percentage growth inhibition (GI%),"SNB-75; SNB-75, 10 μM",20%
same,Growth Percent,SNB-75,80.45%
same,Percentage growth inhibition (GI%),"SF-539; SF-539, 10 μM",13%
same,Growth Percent,SF-539,87.81%
same,Percentage growth inhibition (GI%),"SF-295; SF-295, 10 μM",29%
same,Growth Percent,SF-295,71.54%
same,Percentage growth inhibition (GI%),"SF-268; SF-268, 10 μM",25%
same,Growth Percent,SF-268,75.77%
same,Percentage growth inhibition (GI%),"SNB-19; SNB-19, 10 μM",22%
same,Growth Percent,SNB-19,78.75%
same,Percentage growth inhibition (GI%),"DU-145; DU-145, 10 μM",20%
same,Growth Percent,DU-145,80.60%
same,Percentage growth inhibition (GI%),"PC-3; PC-3, 10 μM",67%
same,Growth Percent,PC-3,33.54%
same,Percentage growth inhibition (GI%),"MOLT-4; MOLT-4, 10 μM",57%
same,Growth Percent,MOLT-4,43.68%
same,Percentage growth inhibition (GI%),"RPMI-8226; RPMI-8226, 10 μM",57%
same,Growth Percent,RPMI-8226,43.88%
same,Percentage growth inhibition (GI%),HL-60(TB); 10 μM,48%
same,Growth Percent,HL-60(TB),52.58%
same,Percentage growth inhibition (GI%),"K-562; K-562, 10 μM",51%
same,Growth Percent,K-562,49.47%
same,Percentage growth inhibition (GI%),SR; 10 μM,40%
same,Growth Percent,SR,60.09%
same,Percentage growth inhibition (GI%),CCRF-CEM; 10 μM,45%
same,Growth Percent,CCRF-CEM,55.04%
same,Percentage growth inhibition (GI%),SN12C; 10 μM,22%
same,Growth Percent,SN12C,78.52%
same,Percentage growth inhibition (GI%),"A498; A498, 10 μM",43%
same,Growth Percent,A498,57.69%
same,Percentage growth inhibition (GI%),"786-0; 786-0, 10 μM",25%
same,Growth Percent,786-0,75.10%
same,Percentage growth inhibition (GI%),"TK-10; TK-10, 10 μM",12%
same,Growth Percent,TK-10,88.19%
same,Percentage growth inhibition (GI%),"RXF 393; RXF 393, 10 μM",28%
same,Growth Percent,RXF 393,72.65%
same,Percentage growth inhibition (GI%),"UO-31; UO-31, 10 μM",28%
same,Growth Percent,UO-31,72.37%
same,Mean Growth Percent,NCI 58 cell line panel,68.99%
same,Percentage growth inhibition (GI%),"SW-620; SW-620, 10 μM",10%
same,Growth Percent,SW-620,90.92%
same,Percentage growth inhibition (GI%),"KM12; KM12, 10 μM",30%
same,Growth Percent,KM12,70.44%
same,Percentage growth inhibition (GI%),"HCT-15; HCT-15, 10 μM",51%
same,Growth Percent,HCT-15,49.62%
same,Percentage growth inhibition (GI%),"HCT-116; HCT-116, 10 μM",55%
same,Growth Percent,HCT-116,45.30%
same,Percentage growth inhibition (GI%),"COLO 205; COLO 205, 10 μM",- (Only GI% higher than 10% are shown)
same,Growth Percent,COLO 205,93.52%
same,Percentage growth inhibition (GI%),"HCC-2998; HCC-2998, 10 μM",- (Only GI% higher than 10% are shown)
same,Growth Percent,HCC-2998,93.63%
same,Percentage growth inhibition (GI%),"HT29; HT29, 10 μM",44%
same,Growth Percent,HT29,56.20%
"COc1ccc(-c2ccc(NC(=O)Nc3cccc(Cl)c3)c(C)n2)cc1OC [Compound 8j, 1-(3-Chlorophenyl)-3-(6-(3,4-dimethoxyphenyl)-2-methylpyridin-3-yl) Urea]",inhibition at 10 µM,"U251; Homo sapiens, U-251, U251, 10 μM, read-out: Percentage growth inhibition (GI%)",17%
same,Growth Percent,U251,83.31%
same,inhibition at 10 µM,"SNB-75; Homo sapiens, SNB-75, 10 μM, read-out: Percentage growth inhibition (GI%)",16%
same,Growth Percent,SNB-75,84.12%
same,inhibition at 10 µM,"SF-539; Homo sapiens, SF-539, 10 μM, read-out: Percentage growth inhibition (GI%)",11%
same,Growth Percent,SF-539,89.70%
same,inhibition at 10 µM,"SF-295; Homo sapiens, SF-295, 10 μM, read-out: Percentage growth inhibition (GI%)",17%
same,Growth Percent,SF-295,83.73%
same,inhibition at 10 µM,"SF-268; Homo sapiens, SF-268, 10 μM, read-out: Percentage growth inhibition (GI%)",13%
same,Growth Percent,SF-268,87.00%
same,inhibition at 10 µM,"SNB-19; Homo sapiens, SNB-19, 10 μM, read-out: Percentage growth inhibition (GI%)",< 10%
same,Growth Percent,SNB-19,97.00%
same,Growth Percent,DU-145,101.79%
same,inhibition at 10 µM,"DU-145; Homo sapiens, DU-145, 10 μM, read-out: Percentage growth inhibition (GI%)",< 10%
same,inhibition at 10 µM,"PC-3; Homo sapiens, PC-3, 10 μM, read-out: Percentage growth inhibition (GI%)",61%
same,Growth Percent,PC-3,39.30%
same,inhibition at 10 µM,"MOLT-4; Homo sapiens, MOLT-4, 10 μM, read-out: Percentage growth inhibition (GI%)",58%
same,Growth Percent,MOLT-4,42.64%
same,inhibition at 10 µM,"RPMI-8226; Homo sapiens, RPMI-8226, 10 μM, read-out: Percentage growth inhibition (GI%)",49%
same,Growth Percent,RPMI-8226,51.32%
same,Growth Percent,HL-60(TB),63.92%
same,inhibition at 10 µM,HL-60(TB); [1],37%
same,inhibition at 10 µM,"K-562; Homo sapiens, K562, K-562, 10 μM, read-out: Percentage growth inhibition (GI%)",60%
same,Growth Percent,K-562,40.86%
same,Growth Percent,SR,52.07%
same,inhibition at 10 µM,SR; [1],48%
same,Growth Percent,CCRF-CEM,68.29%
same,inhibition at 10 µM,CCRF-CEM; [1],32%
same,Growth Percent,SN12C,86.84%
same,inhibition at 10 µM,SN12C; [1],14%
same,Growth Percent,A498,69.84%
same,inhibition at 10 µM,"A498; Homo sapiens, A498, 10 μM, read-out: Percentage growth inhibition (GI%)",31%
same,Growth Percent,786-0,71.87%
same,inhibition at 10 µM,"786-0; Homo sapiens, 786-0, 10 μM, read-out: Percentage growth inhibition (GI%)",29%
same,inhibition at 10 µM,"TK-10; Homo sapiens, TK-10, 10 μM, read-out: Percentage growth inhibition (GI%)",< 10%
same,Growth Percent,TK-10,99.31%
same,inhibition at 10 µM,"RXF 393; Homo sapiens, RXF 393, 10 μM, read-out: Percentage growth inhibition (GI%)",18%
same,Growth Percent,RXF 393,82.62%
same,inhibition at 10 µM,"UO-31; Homo sapiens, UO-31, 10 μM, read-out: Percentage growth inhibition (GI%)",21%
same,Growth Percent,UO-31,79.44%
same,inhibition at 10 µM,"NCI 58 cell line panel; Homo sapiens, 10 μM, one dose, read-out: mean inhibition (mean % growth inhibition over NCI 58 cell line panel)",22 to 34%
same,Mean Growth Percent,NCI 58 cell line panel,78.01%
same,inhibition at 10 µM,"SW-620; Homo sapiens, SW-620, 10 μM, read-out: Percentage growth inhibition (GI%)",< 10%
same,Growth Percent,SW-620,98.24%
same,inhibition at 10 µM,"KM12; Homo sapiens, KM12, 10 μM, read-out: Percentage growth inhibition (GI%)",22%
same,Growth Percent,KM12,78.93%
same,Growth Percent,HCT-15,60.62%
same,inhibition at 10 µM,"HCT-15; Homo sapiens, HCT-15, 10 μM, read-out: Percentage growth inhibition (GI%)",40%
same,Growth Percent,HCT-116,63.31%
same,inhibition at 10 µM,"HCT-116; Homo sapiens, HCT-116, 10 μM, read-out: Percentage growth inhibition (GI%)",37%
same,Growth Percent,COLO 205,93.06%
same,inhibition at 10 µM,"COLO 205; Homo sapiens, COLO 205, 10 μM, read-out: Percentage growth inhibition (GI%)",< 10%
same,Growth Percent,HCC-2998,88.09%
same,inhibition at 10 µM,"HCC-2998; Homo sapiens, HCC-2998, 10 μM, read-out: Percentage growth inhibition (GI%)",12%
same,Growth Percent,HT29,74.98%
same,inhibition at 10 µM,"HT29; Homo sapiens, HT-29, HT29, 10 μM, read-out: Percentage growth inhibition (GI%)",26%
